# Data taken from ChEMBL document CHEMBL1142009, “Efficient synthesis of bicyclic oxazolino- and thiazolino[3,2-c]pyrimidine-5,7-diones and its application to the synthesis of GnRH antagonists” (Bioorg Med Chem Lett, 2005).
# Molecular target: T1, Gonadotropin-releasing hormone receptor (Homo sapiens, UniProt P30968)
# T1 sequence (P30968 whole entry): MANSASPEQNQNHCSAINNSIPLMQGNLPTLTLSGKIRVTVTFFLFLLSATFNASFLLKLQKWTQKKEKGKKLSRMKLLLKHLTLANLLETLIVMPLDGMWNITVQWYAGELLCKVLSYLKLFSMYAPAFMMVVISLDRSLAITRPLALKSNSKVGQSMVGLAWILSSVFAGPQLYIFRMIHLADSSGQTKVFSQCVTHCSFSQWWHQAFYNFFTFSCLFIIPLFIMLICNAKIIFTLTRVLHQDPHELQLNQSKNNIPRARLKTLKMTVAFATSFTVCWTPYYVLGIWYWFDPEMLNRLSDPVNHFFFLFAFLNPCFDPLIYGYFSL
# Assay: Binding affinity was determined against human gonadotropin-releasing hormone receptor
row,Ki [nM],Structure (SMILES)
1,870,COc1cccc(-c2c3n(c(=O)n(CC(N)c4ccccc4)c2=O)C(c2ccccc2)CO3)c1 (stereo not given)
2,230,NC(Cn1c(=O)c(-c2ccccc2F)c2n(c1=O)C(c1ccccc1F)CO2)c1ccccc1 (stereo not given)
3,110,N[C@@H](Cn1c(=O)c(-c2ccccc2F)c2n(c1=O)C(c1ccccc1)CS2)c1ccccc1 (stereo not given in full)
4,125,COc1cccc(-c2c3n(c(=O)n(CC(N)c4ccccc4)c2=O)C(c2ccccc2)CO3)c1F (stereo not given)
5,700,NC(Cn1c(=O)c(-c2ccccc2F)c2n(c1=O)C(c1ccccc1)CO2)c1ccccc1 (stereo not given)

# Continued, compound first:
row,Structure (SMILES),Ki [nM]
1,COc1cccc(-c2c3n(c(=O)n(CC(N)c4ccccc4)c2=O)C(c2ccccc2F)CS3)c1F (stereo not given),40
2,NC(Cn1c(=O)c(-c2ccccc2F)c2n(c1=O)C(c1ccccc1F)CS2)c1ccccc1 (stereo not given),220
3,COc1cccc(-c2c3n(c(=O)n(CC(N)c4ccccc4)c2=O)C(c2ccccc2F)CS3)c1Cl (stereo not given),4.5
4,COc1cccc(-c2c3n(c(=O)n(CCNCc4ccccc4)c2=O)[C@@H](c2ccccc2)CO3)c1F,460
5,NC(Cn1c(=O)c(-c2ccccc2Cl)c2n(c1=O)C(c1ccccc1F)CS2)c1ccccc1 (stereo not given),93
